Results as given in DBAASP.
Converted amounts (≈) assume the structure as drawn. Each block holds one compound with its values, some of them ahead of it.

Legend:
Assay in all cases: ≥ marks a high value that may be exact or a test limit, other limits are often not marked, values filed in µg/mL are converted to µM
[1] = system: Escherichia coli ATCC 25922
[2] = system: Klebsiella pneumoniae ATCC 700603
[3] = system: Pseudomonas aeruginosa ATCC 9027
[4] = system: Acinetobacter baumannii
[5] = system: Staphylococcus aureus ATCC 25923
[6] = system: Staphylococcus aureus ATCC 6538
[7] = system: Acinetobacter baumannii ATCC 19606
[8] = system: Pseudomonas aeruginosa ATCC 27853
[9] = system: Bacillus subtilis
[10] = system: Candida albicans ATCC 2002
[11] = system: Pseudomonas aeruginosa PAO1
[12] = system: Escherichia coli ATCC 25726
[13] = system: Staphylococcus aureus
[14] = system: Escherichia coli
[15] = system: Escherichia coli DH5alpha

SMILES: CC[C@H](C)[C@H](NC(=O)[C@H](C)N)C(=O)N[C@@H](Cc1c[nH]c2ccccc12)C(=O)N[C@@H](CCCN=C(N)N)C(=O)N[C@@H](CCCCN)C(=O)N[C@@H](C)C(=O)N[C@H](C(=O)N[C@@H](CCCN=C(N)N)C(=O)N[C@@H](CCCN=C(N)N)C(=O)N[C@@H](CC(C)C)C(=O)N[C@H](C(=O)N[C@@H](CCCCN)C(=O)N[C@@H](CC(C)C)C(=O)N[C@H](C(=O)N[C@H](C(N)=O)C(C)C)[C@@H](C)CC)C(C)C)[C@@H](C)O [AIWRKATRRLVKLIV]
MIC [1]: 12.5 µM (≈ 22.8 µg/mL) | MIC [2]: 25 µM (≈ 45.6 µg/mL) | MIC [3]: 3 µM (≈ 5.47 µg/mL) | MIC [4]: 3.12 µM (≈ 5.69 µg/mL) | MIC [5]: 12 µM (≈ 21.9 µg/mL)

SMILES: CC(C)C[C@H](NC(=O)[C@H](C)NC(=O)[C@H](CC(C)C)NC(=O)[C@H](CC(C)C)NC(=O)[C@H](CCCCN)NC(=O)[C@H](CCCCN)NC(=O)[C@H](C)NC(=O)[C@H](CC(C)C)NC(=O)[C@H](CCCCN)NC(=O)[C@H](C)NC(=O)[C@H](CC(C)C)NC(=O)[C@H](CCCCN)NC(=O)[C@H](CCCCN)NC(=O)[C@H](C)NC(=O)[C@@H](N)Cc1ccccc1)C(N)=O [FAKKLAKLAKKLLAL]
MIC [6]: 3.02 µM (≈ 5 µg/mL) | MIC [3]: 30.2 µM (≈ 50 µg/mL)

SMILES: CC(C)C[C@H](NC(=O)[C@H](C)NC(=O)[C@H](Cc1ccccc1)NC(=O)[C@H](CCCCN)NC(=O)[C@H](CCCCN)NC(=O)[C@H](C)NC(=O)[C@H](CC(C)C)NC(=O)[C@H](CCCCN)NC(=O)[C@H](C)NC(=O)[C@H](CC(C)C)NC(=O)[C@H](CC(C)C)NC(=O)[C@H](CCCCN)NC(=O)[C@H](C)NC(=O)[C@@H](N)Cc1ccccc1)C(N)=O [FAKLLAKLAKKFAL]
MIC [6]: 32 µM (≈ 50 µg/mL) | MIC [3]: 128 µM (≈ 200 µg/mL)

SMILES: CC[C@H](C)[C@H](NC(=O)CNC(=O)[C@H](CCCCN)NC(=O)[C@H](CC(C)C)NC(=O)[C@@H](N)Cc1ccccc1)C(=O)N[C@H](C(=O)N[C@@H](CC(=O)O)C(=O)N[C@H](C(=O)N[C@H](C(=O)N[C@@H](CO)C(=O)N[C@@H](CC(N)=O)C(=O)N[C@@H](Cc1c[nH]c2ccccc12)C(=O)N[C@@H](CC(C)C)C(N)=O)C(C)C)[C@@H](C)O)[C@@H](C)CC [FLKGIIDTVSNWL]
MIC [7]: > 26.6 µM

SMILES: CC(C)C[C@H](NC(=O)[C@@H]1CCCN1C(=O)CNC(=O)[C@@H]1CCCN1C(=O)[C@H](CC(C)C)NC(=O)CN)C(=O)NCC(=O)N1CCC[C@H]1C(=O)N[C@@H](C)C(=O)NCC(=O)N1CCC[C@H]1C(=O)N[C@@H](CCCCN)C(=O)O [GLPGPLGPAGPK]
MIC [6]: 1330 µM (≈ 1410 µg/mL)

SMILES: CC[C@H](C)[C@H](N)C(=O)N[C@@H](CC(N)=O)C(=O)N[C@@H](Cc1c[nH]c2ccccc12)C(=O)N[C@@H](CCCCN)C(=O)N[C@@H](CCCCN)C(=O)N[C@H](C(=O)N[C@@H](Cc1ccccc1)C(=O)N[C@@H](CCC(N)=O)C(=O)N[C@@H](CCCCN)C(=O)N[C@H](C(=O)N[C@@H](CCCCN)C(=O)N[C@@H](CC(N)=O)C(=O)N[C@@H](CC(C)C)C(=O)N[C@H](C(N)=O)C(C)C)C(C)C)[C@@H](C)CC [INWKKIFQKVKNLV]
MIC [9]: ≥ 45 µM | MIC [14]: 8 µM (≈ 14.1 µg/mL)

SMILES: CC[C@H](C)[C@H](N)C(=O)N[C@@H](CC(N)=O)C(=O)N[C@@H](Cc1c[nH]c2ccccc12)C(=O)N[C@@H](CCCCN)C(=O)N[C@@H](CCCCN)C(=O)N[C@@H](CC(C)C)C(=O)NCC(=O)N[C@@H](CCCCN)C(=O)N[C@@H](CCCCN)C(=O)N[C@H](C(=O)N[C@@H](CC(C)C)C(=O)NCC(=O)N[C@@H](C)C(=O)N[C@@H](CC(C)C)C(N)=O)[C@@H](C)CC [INWKKLGKKILGAL]
MIC [9]: 15.5 µM (≈ 24.5 µg/mL) | MIC [14]: 43 µM (≈ 68 µg/mL)

SMILES: CC[C@H](C)[C@H](N)C(=O)N[C@@H](CC(N)=O)C(=O)N[C@@H](Cc1c[nH]c2ccccc12)C(=O)N[C@@H](CC(C)C)C(=O)N[C@@H](CCCCN)C(=O)N[C@@H](CC(C)C)C(=O)NCC(=O)N[C@@H](CCCCN)C(=O)N[C@@H](CCCCN)C(=O)N[C@@H](CCSC)C(=O)N[C@@H](CCSC)C(=O)N[C@@H](CO)C(=O)N[C@@H](C)C(=O)N[C@@H](CC(C)C)C(=O)O [INWLKLGKKMMSAL]
MIC [9]: 22.5 µM (≈ 36.7 µg/mL) | MIC [14]: 100 µM (≈ 163 µg/mL)

SMILES: CC[C@H](C)[C@H](NC(=O)[C@H](CO)NC(=O)[C@H](C)NC(=O)[C@@H](NC(=O)[C@@H](N)CCCCN)[C@@H](C)CC)C(=O)NCC(=O)N[C@@H](CCCCN)C(=O)N[C@@H](CCC(=O)O)C(=O)N[C@H](C(=O)N[C@@H](CC(C)C)C(=O)N[C@@H](CCCCN)C(=O)N[C@@H](C)C(=O)N[C@@H](CC(C)C)C(N)=O)C(C)C [KIASIGKEVLKAL]
MIC [9]: ≥ 100 µM | MIC [14]: 100 µM (≈ 137 µg/mL)

SMILES: CC[C@H](C)[C@H](NC(=O)[C@H](C)NC(=O)[C@H](CCCN=C(N)N)NC(=O)[C@H](Cc1ccc(O)cc1)NC(=O)[C@H](CC(C)C)NC(=O)[C@H](CC(N)=O)NC(=O)[C@H](Cc1ccc(O)cc1)NC(=O)CNC(=O)[C@H](C)NC(=O)[C@@H](NC(=O)[C@@H](NC(=O)[C@@H](NC(=O)[C@H](CCCN=C(N)N)NC(=O)[C@@H](NC(=O)[C@@H](NC(=O)[C@@H](NC(=O)[C@@H]1CCCN1C(=O)[C@H](Cc1c[nH]c2ccccc12)NC(=O)[C@H](Cc1ccccc1)NC(=O)[C@H](CCCN=C(N)N)NC(=O)[C@H](CCCCN)NC(=O)[C@@H](NC(=O)[C@@H](N)CCCN=C(N)N)[C@@H](C)CC)C(C)C)C(C)C)[C@@H](C)CC)[C@@H](C)O)C(C)C)C(C)C)C(=O)O [RIKRFWPVVIRTVVAGYNLYRAI]
MIC [9]: 13.4 µM (≈ 37.5 µg/mL) | MIC [1]: 3.36 µM (≈ 9.38 µg/mL) | MIC [10]: 0.84 µM (≈ 2.34 µg/mL) | MIC [5]: 13.4 µM (≈ 37.5 µg/mL)

SMILES: CC[C@H](C)[C@H](NC(=O)[C@@H](NC(=O)[C@@H](NC(=O)[C@@H]1CCCN1C(=O)[C@H](Cc1c[nH]c2ccccc12)NC(=O)[C@H](Cc1ccccc1)NC(=O)[C@H](CCCN=C(N)N)NC(=O)[C@H](CCCCN)NC(=O)[C@@H](NC(=O)[C@@H](N)CCCN=C(N)N)[C@@H](C)CC)C(C)C)C(C)C)C(=O)N[C@@H](CCCN=C(N)N)C(=O)N[C@H](C(=O)N[C@H](C(=O)N[C@H](C(=O)N[C@@H](C)C(=O)NCC(=O)N[C@@H](Cc1ccc(O)cc1)C(=O)N[C@@H](CC(N)=O)C(=O)N[C@@H](CC(C)C)C(=O)N[C@@H](Cc1ccc(O)cc1)C(=O)N[C@@H](CCCN=C(N)N)C(=O)N[C@@H](C)C(=O)O)C(C)C)C(C)C)[C@@H](C)O [RIKRFWPVVIRTVVAGYNLYRA]
MIC [1]: 1.75 µM (≈ 4.69 µg/mL) | MIC [10]: 1.75 µM (≈ 4.69 µg/mL) | MIC [5]: 28 µM (≈ 75 µg/mL)

SMILES: CC[C@H](C)[C@@H]1NC(=O)[C@H](CCSC)NC(=O)[C@@H]2CCCN2C(=O)[C@@H]2CCCN2C(=O)[C@@H](NC(=O)[C@@H](N)Cc2c[nH]c3ccccc23)CSSC[C@@H](C(=O)N[C@@H](CO)C(=O)N[C@@H](CCCN=C(N)N)C(=O)N[C@@H](Cc2ccccc2)C(N)=O)NC(=O)[C@H](CC(C)C)NC(=O)[C@@H]2CCCN2C1=O [WCPPMIPLCSRF]
MIC [12]: ≥ 200 µM | MIC [5]: > 200 µM

More lines, now with the values ahead:

MIC [1]: 58 µM (≈ 63.9 µg/mL) | MIC [7]: 58 µM (≈ 63.9 µg/mL) | MIC [8]: 7.25 µM (≈ 7.99 µg/mL) | MIC [5]: 58 µM (≈ 63.9 µg/mL)
SMILES: CC(C)C[C@H](NC(=O)[C@H](CC(C)C)NC(=O)[C@H](CCCCN)NC(=O)[C@H](CCCCN)NC(=O)[C@H](CC(C)C)NC(=O)[C@@H](NC(=O)[C@H](CCCCN)NC(=O)[C@H](CC(C)C)NC(=O)[C@@H](N)Cc1ccccc1)[C@@H](C)O)C(N)=O [FLKTLKKLL]

MIC [9]: 5.32 µM (≈ 9.37 µg/mL) | MIC [10]: 4.68 µM (≈ 8.26 µg/mL) | MIC [8]: 2.66 µM (≈ 4.69 µg/mL) | MIC [11]: 2.66 µM (≈ 4.69 µg/mL) | MIC [5]: 2.66 µM (≈ 4.69 µg/mL)
SMILES: CC[C@H](C)[C@H](NC(=O)CNC(=O)[C@H](CO)NC(=O)[C@H](CC(C)C)NC(=O)[C@H](C)NC(=O)CNC(=O)[C@H](CC(C)C)NC(=O)[C@@H](NC(=O)[C@H](CC(C)C)NC(=O)[C@@H]1CCCN1C(=O)[C@H](CC(C)C)NC(=O)[C@@H](N)Cc1ccccc1)C(C)C)C(=O)N[C@@H](CC(C)C)C(=O)N1CCC[C@H]1C(=O)N[C@@H](CCCCN)C(=O)N[C@H](C(=O)N[C@@H](CC(C)C)C(N)=O)[C@@H](C)CC [FLPLVLGALSGILPKIL]

MIC [12]: ≥ 128 µM | MIC [5]: 64 µM (≈ 85.9 µg/mL)
SMILES: CC(C)C[C@H](NC(=O)[C@H](CC(C)C)NC(=O)CNC(=O)[C@H](CO)NC(=O)[C@H](CC(C)C)NC(=O)[C@H](CC(C)C)NC(=O)CNC(=O)[C@@H](NC(=O)[C@@H](NC(=O)[C@H](CC(C)C)NC(=O)[C@@H]1CCCN1C(=O)[C@H](CC(C)C)NC(=O)[C@@H](N)Cc1ccccc1)C(C)C)[C@@H](C)O)C(N)=O [FLPLVTGLLSGLL]

MIC [9]: 17.6 µM (≈ 31.2 µg/mL) | MIC [13]: 141 µM (≈ 250 µg/mL) | MIC [14]: > 141 µM
SMILES: CC[C@H](C)[C@H](NC(=O)[C@H](CO)NC(=O)[C@H](C)NC(=O)[C@@H]1CCCN1C(=O)[C@H](CC(C)C)NC(=O)CN)C(=O)N[C@@H](CO)C(=O)N[C@@H](Cc1c[nH]c2ccccc12)C(=O)N[C@H](C(=O)N[C@@H](CCCCN)C(=O)N[C@@H](CCCN=C(N)N)C(=O)N[C@@H](CCCCN)C(=O)N[C@@H](CCCN=C(N)N)C(=O)N[C@@H](CCC(N)=O)C(=O)N[C@@H](CCC(N)=O)C(N)=O)[C@@H](C)CC [GLPASISWIKRKRQQ]

MIC [9]: ≥ 200 µM | MIC [8]: > 200 µM | MIC [15]: ≥ 200 µM | MIC [5]: > 200 µM
SMILES: NCCCC[C@H](NC(=O)[C@H](Cc1c[nH]c2ccccc12)NC(=O)CN)C(=O)N[C@@H](CCCN=C(N)N)C(=O)N[C@@H](CCCCN)C(=O)N[C@@H](CCCN=C(N)N)C(=O)N[C@@H](Cc1ccccc1)C(=O)NCC(=O)O [GWKRKRFG]
